Measured values: PubChem BioAssay AID434935 (Broad Institute, 2010)
Records with an inconclusive call do not appear. Calls of active or inactive are those of the source.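 The calls were made as follows: active = EC50 no higher than ten times the top concentration tested; inconclusive = flat fit with growth inhibition between 30% and 70%, or poor fit; inactive = EC50 above ten times the top concentration tested.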

System: C. albicans CaCi-8 + fluconazole, Alamar Blue growth, 48 h
Assay: azole-resistant Candida growth inhibition plus fluconazole, SAR follow-up, CaCi-8 strain, Alamar Blue fluorescence (AID 434935)

| Compound | EC50 |
| --- | --- |
| COc1cc2c(cc1NC(=O)c1ccco1)CCCC2 | < 0.1 µM |
| CCCC(=O)NC(c1ccc(Cl)cc1)c1ccc2cccnc2c1O (centres undefined) | 0.607 µM |
| O=C(Nc1sc2c(c1C(=O)c1ccc(Cl)cc1)CCCC2)c1cccnc1 | 0.938 µM |
| Clc1ccc2c(c1)C(c1cccs1)=NNC(c1cccnc1)=N2 | < 0.1 µM |
| COc1ccc(-c2nnc(NC(=O)c3ccc(F)cc3)o2)cc1 | 0.146 µM |
| CCCC(=O)NC(c1ccccc1)c1ccc2cccnc2c1O (centres undefined) | 1.11 µM |
| Cc1ccc(C(=O)Nc2cccc(-c3cn4ccccc4n3)c2)cc1 | 2.77 µM |
| O=c1c2cc(Br)ccc2nc(-c2cccc(C(F)(F)F)c2)n1O | 3.1 µM |
| Cc1oc2c(F)c(F)c(F)c(F)c2c1S(=O)(=O)Nc1cccc(C(F)(F)F)c1 | 9.31 µM |
| Cc1ccc(/C=C/C(=O)c2ccccc(=O)c2O)cc1C | > 26 µM (inactive) |
| CC(C)COCc1ccc(O)c2ncccc12 | 7.46 µM |
| O=C(Nc1nc(-c2ccccn2)cs1)c1ccc(Br)s1 | 2.35 µM |
| CC(C)N1CCc2c(sc(NC(=O)c3nc4ccccc4s3)c2C(N)=O)C1 | 0.6 µM |
| Cc1ccc(Nc2nc(N)c([N+](=O)[O-])c(N3CCC(C)CC3)n2)cc1C | 6.15 µM |
| O=C(NNC1=C(C(=O)C(F)(F)F)CCC1)c1ccc(Cl)cc1 | 6.84 µM |
| O=C(Nc1nnc(SCc2ccc(Cl)cc2)s1)c1ccc2ccccc2n1 | 0.771 µM |
| COc1ccc(-n2nc(C(=O)NCC(=O)N3CCN(c4ccccc4)CC3)c3ccccc3c2=O)c(OC)c1 | 1.17 µM |
| Cc1nc2ccccc2cc1OCc1ccc(F)cc1 | 7.27 µM |
| O=C(Nc1nnc(CCc2ccccc2)s1)c1ccco1 | 3.11 µM |
| Nc1nccnc1C(=O)Nc1nnc(SCc2ccc(Cl)cc2)s1 | 1.43 µM |
| CCOC(=O)N1C(=O)C2(CCCCC2)N(c2ccc(C)cc2)C1=S | 1.36 µM |
| O=C(Nc1nnc(-c2ccc3c(c2)CCCC3)o1)c1ccc(Cl)cc1Cl | 0.152 µM |
| Cc1ccc(C(=O)c2coc3c2C(=O)C(=O)c2ccccc2-3)cc1 | 0.226 µM |
| O=C(Oc1c(Cl)cc(Cl)c2cccnc12)c1cccs1 | 0.192 µM |
